Like-named read-outs stand apart in the source and are kept apart here. Each block holds one compound with its values, some of them ahead of it.
Columns and labels:
[1] = biological target: FAP (Homo sapiens (Human), UniProt Q12884); test: FAP inhibition assay (recombinant enzyme, Z-Gly-Pro-AMC substrate); assay type: biochemical; conditions: for Ki: read-out: FAP Ki
Description: (§1) PSMA binding affinities of the compounds were determined using a competitive inhibition assay as previously reported. […] FAP, prolyl endopeptidase (PREP), and […] (DPPIV) inhibition assays: Recombinant enzymes (FAP, PREP, DPPIV) were purchased from R&D Systems (Minneapolis, MN). […] Z-Gly-Pro-AMC was used as a substrate for FAP and PREP. H-Gly-Pro-AMC was used as a substrate for DPPIV. The recombinant enzyme (0.4 μg/mL) was incubated with varying amounts of the test articles in the presence of the designated substrate (80 μM) for 10 min at room temperature. Fluorescence intensity was measured with 380 nm excitation and 460 nm emission using the Cytation 5 Cell Imaging Multi-Mode Reader (BioTek, Winooski, VT). IC50 and Ki values were obtained using a sigmoidal dose-response function.

[2] = biological target: PREP (Homo sapiens (Human), UniProt P48147); test: PREP inhibition assay (recombinant enzyme, Z-Gly-Pro-AMC substrate); assay type: biochemical
Description: as §1

[3] = biological target: DPPIV (Homo sapiens (Human), UniProt P27487); test: DPPIV inhibition assay (recombinant enzyme, H-Gly-Pro-AMC substrate); assay type: biochemical; conditions: for IC50: read-out: DPPIV IC50
Description: as §1

[4] = biological target: PSMA (Homo sapiens (Human), UniProt Q04609); test: PSMA competitive inhibition assay (NAAG substrate, LNCaP cell lysate); assay type: biochemical; conditions: for Ki: read-out: PSMA Ki
Description: as §1

[5] = tested on: MDA-MB-231; test: Biodistribution in MB-MDA-231 NSG mice; assay type: in vivo, mouse; design: Biodistribution: Spleen / Biodistribution: Fat / Biodistribution: Kidney / Biodistribution: Muscle / Biodistribution: Small Intestine / Biodistribution: Salivary Gland / Biodistribution: Lacrimal gland / Biodistribution: Bladder / Biodistribution: Bone / Biodistribution: MDA-MB-231 / Biodistribution: Blood / Biodistribution: Heart / Biodistribution: Lung / Biodistribution: Liver / Biodistribution: Stomach: unit not given here
[6] = PET imaging and biodistribution in SK-MEL-24 tumor-bearing mice; assay type: in vivo, mouse; conditions: mouse, intravenous, SK-MEL-24 in NSG mice, 20 μCi; for tissue uptake at 1 h: n=3
Description: (§2) Cell uptake assays, flow cytometry, and IHC were performed as described previously. Banerjee et al., 2019; Nimmagadda et al., 2018. PET imaging and biodistribution Sequential PET imaging and biodistribution studies were conducted to quantify and validate PET imaging data. Briefly, tumor-bearing mice were administrated approximately 7.4 MBq of radiotracer in 150 μL saline via tail-vein injection. They were randomized into the indicated groups of 3-4 mice before radiotracer injection.
(§3) In Experiment 2, SK-MEL-24 tumor-bearing mice (n=3-4) were investigated.
(§4) Dose: 20 μCi, n=3 at 1 h and n=4 at 2 and 4 h per group, Tumor model: SK-MEL-24 in NSG mice

[7] = tested on: SK-MEL-24 tumor; test: as above; assay type: in vivo, mouse; conditions: SK-MEL-24 in NSG mice, 20 μCi, in %ID/g
Description: as §2, §3, §4

Chain of PSMA (Q04609 whole entry): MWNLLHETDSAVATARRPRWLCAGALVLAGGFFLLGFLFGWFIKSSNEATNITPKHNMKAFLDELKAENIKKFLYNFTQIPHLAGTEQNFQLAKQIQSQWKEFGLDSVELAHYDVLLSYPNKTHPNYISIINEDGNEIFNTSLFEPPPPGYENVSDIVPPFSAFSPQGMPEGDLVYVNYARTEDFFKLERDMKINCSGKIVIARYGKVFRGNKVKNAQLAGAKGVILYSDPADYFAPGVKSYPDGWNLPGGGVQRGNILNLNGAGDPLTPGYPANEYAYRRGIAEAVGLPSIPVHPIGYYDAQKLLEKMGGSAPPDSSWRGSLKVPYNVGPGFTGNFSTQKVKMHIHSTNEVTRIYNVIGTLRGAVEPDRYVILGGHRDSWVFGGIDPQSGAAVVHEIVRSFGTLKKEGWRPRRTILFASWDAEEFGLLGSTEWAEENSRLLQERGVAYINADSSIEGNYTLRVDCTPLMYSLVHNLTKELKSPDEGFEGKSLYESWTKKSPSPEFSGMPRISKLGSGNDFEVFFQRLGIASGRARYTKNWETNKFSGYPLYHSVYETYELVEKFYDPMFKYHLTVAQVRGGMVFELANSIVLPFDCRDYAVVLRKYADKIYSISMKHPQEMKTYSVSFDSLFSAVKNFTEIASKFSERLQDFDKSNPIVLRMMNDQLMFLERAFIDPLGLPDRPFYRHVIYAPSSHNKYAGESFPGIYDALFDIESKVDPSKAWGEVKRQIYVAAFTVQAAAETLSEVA
Chain of PREP (P48147 whole entry): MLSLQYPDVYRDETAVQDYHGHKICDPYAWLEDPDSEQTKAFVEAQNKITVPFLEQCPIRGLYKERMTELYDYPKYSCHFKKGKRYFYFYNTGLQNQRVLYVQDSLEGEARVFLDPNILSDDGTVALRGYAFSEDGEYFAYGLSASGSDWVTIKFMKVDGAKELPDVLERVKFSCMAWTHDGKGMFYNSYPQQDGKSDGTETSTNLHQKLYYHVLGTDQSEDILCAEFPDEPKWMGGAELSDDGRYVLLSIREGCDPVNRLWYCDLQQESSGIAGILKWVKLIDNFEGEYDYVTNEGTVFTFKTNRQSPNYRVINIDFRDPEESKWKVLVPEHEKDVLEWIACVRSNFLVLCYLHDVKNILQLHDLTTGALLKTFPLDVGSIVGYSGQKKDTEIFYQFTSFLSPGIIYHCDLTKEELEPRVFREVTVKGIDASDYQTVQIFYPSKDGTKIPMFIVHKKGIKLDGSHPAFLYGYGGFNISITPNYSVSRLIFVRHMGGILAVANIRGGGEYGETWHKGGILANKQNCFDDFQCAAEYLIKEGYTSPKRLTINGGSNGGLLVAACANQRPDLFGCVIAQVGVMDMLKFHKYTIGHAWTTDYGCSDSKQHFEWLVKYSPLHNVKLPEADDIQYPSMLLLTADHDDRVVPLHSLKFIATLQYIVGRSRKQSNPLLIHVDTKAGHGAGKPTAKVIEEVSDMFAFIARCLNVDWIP
Chain of DPPIV (P27487 whole entry): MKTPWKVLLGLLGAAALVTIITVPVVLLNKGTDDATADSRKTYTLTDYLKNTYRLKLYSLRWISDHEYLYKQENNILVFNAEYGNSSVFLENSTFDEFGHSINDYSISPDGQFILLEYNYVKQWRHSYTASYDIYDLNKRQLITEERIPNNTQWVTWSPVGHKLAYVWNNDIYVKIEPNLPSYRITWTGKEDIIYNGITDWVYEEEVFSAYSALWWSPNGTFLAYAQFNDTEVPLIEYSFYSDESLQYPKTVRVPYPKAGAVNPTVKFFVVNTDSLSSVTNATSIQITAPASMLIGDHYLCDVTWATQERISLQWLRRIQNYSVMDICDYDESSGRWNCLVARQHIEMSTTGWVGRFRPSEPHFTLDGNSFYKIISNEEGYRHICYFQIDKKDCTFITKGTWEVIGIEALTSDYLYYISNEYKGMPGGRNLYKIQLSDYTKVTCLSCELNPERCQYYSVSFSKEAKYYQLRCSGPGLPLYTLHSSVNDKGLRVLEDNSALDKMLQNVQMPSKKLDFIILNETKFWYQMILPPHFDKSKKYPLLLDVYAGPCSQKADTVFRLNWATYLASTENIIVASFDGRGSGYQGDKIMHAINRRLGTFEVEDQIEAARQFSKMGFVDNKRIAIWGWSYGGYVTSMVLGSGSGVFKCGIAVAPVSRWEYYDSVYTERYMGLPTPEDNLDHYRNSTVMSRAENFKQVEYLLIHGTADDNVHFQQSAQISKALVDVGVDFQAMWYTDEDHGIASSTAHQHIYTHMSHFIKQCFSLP
Chain of FAP (Q12884 whole entry): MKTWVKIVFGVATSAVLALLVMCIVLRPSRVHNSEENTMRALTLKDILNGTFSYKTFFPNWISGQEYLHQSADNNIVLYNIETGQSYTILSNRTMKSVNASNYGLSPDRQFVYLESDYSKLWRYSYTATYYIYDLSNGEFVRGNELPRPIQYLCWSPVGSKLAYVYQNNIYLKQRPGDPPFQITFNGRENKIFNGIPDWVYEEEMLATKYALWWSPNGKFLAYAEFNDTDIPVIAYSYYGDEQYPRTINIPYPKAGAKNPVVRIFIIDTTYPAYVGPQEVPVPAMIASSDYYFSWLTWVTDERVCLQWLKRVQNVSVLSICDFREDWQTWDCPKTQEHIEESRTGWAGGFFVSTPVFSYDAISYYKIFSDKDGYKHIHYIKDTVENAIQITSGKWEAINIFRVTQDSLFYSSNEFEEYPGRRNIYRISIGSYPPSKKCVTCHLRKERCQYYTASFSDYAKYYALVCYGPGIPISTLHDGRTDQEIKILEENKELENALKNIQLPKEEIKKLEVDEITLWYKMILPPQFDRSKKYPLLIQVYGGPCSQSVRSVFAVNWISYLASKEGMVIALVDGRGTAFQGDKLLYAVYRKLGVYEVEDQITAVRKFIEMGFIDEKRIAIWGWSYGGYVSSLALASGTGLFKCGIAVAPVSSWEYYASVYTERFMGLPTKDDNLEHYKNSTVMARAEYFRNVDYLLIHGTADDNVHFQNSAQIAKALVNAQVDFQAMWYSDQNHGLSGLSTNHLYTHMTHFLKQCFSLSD

IC50 ([1]; Table 3): 1.19 nM | Ki ([1]; Table 3): 0.24 nM | IC50 ([2]; Table 3): 6910 nM | IC50 ([3]; Table 3): 7.91 µM
Structure (SMILES): N#C[C@@H]1CCCN1C(=O)CNC(=O)c1ccnc2ccc(OCCCNC(=O)[C@@H](CC(=O)O)NC(=O)[C@@H](CC(=O)O)NC(=O)c3cccc(F)n3)cc12 [JHU1221708]

IC50 ([1]; Table 3): 1.4 nM | Ki ([1]; Table 3): 0.28 nM | IC50 ([2]; Table 3): 1090 nM | IC50 ([3]; Table 3): 6.22 µM
Structure (SMILES): N#C[C@@H]1CCCN1C(=O)CNC(=O)c1ccnc2ccc(OCCOCCNC(=O)[C@H](CCCCNC(=O)c3ccc(F)nc3)NC(=O)CN3CCN(CC(=O)O)CCN(CC(=O)O)CCN(CC(=O)O)CC3)cc12 [JHU1221803]

Second part, the compound before the results:

Structure (SMILES): N#C[C@@H]1CCCN1C(=O)CNC(=O)c1ccnc2ccc(OCCCNC(=O)CCc3cn(CCOCCOCCOCCC(=O)N[C@@H](CCCCNC(=O)CN4CCN(CC(=O)O)CCN(CC(=O)O)CC4)C(=O)NCCCCC(=O)N(CCCC[C@H](NC(=O)N[C@@H](CCC(=O)O)C(=O)O)C(=O)O)Cc4ccc(Br)cc4)nn3)cc12 [SB-FAP-02]
IC50 ([1]; Table 4): 1.53 nM | Ki ([1]; Table 4): 0.31 nM | Ki [1]: 0.31 nM | Ki [2]: 116 µM | IC50 ([2]; Table 4): 580 nM | Ki [3]: 1760 nM | IC50 ([3]; Table 4): 8.81 µM | IC50 ([4]; Table 4): 90 nM | Ki ([4]; Table 4): 18.1 nM | Ki [4]: 18.1 nM | PSMA binding affinity, fold lower than FP-L2 ([4]; relative to FP-L2): 2 fold | Biodistribution: Blood ([5]; At 1 h nude mice): 8.47 ± 0.16 | Biodistribution: Bone ([5]; At 1 h nude mice): 3.34 ± 0.32 | Biodistribution: Fat ([5]; At 1 h nude mice): 0.61 ± 0.31 | Biodistribution: Heart ([5]; At 1 h nude mice): 3.46 ± 0.07 | Biodistribution: Kidney ([5]; At 1 h nude mice): 12.14 ± 1.39 | Biodistribution: Lacrimal gland ([5]; At 1 h nude mice): 6.61 ± 1.23 | Biodistribution: Liver ([5]; At 1 h nude mice): 6.74 ± 0.16 | Biodistribution: Lung ([5]; At 1 h nude mice): 5.16 ± 0.04 | Biodistribution: MDA-MB-231 ([5]; At 1 h nude mice): 3.60 ± 0.32 | Biodistribution: Muscle ([5]; At 1 h nude mice): 1.59 ± 0.07 | Biodistribution: Pancreas ([5]; At 1 h nude mice): 4.95 ± 0.24 | Biodistribution: Salivary Gland ([5]; At 1 h nude mice): 7.75 ± 0.99 | Biodistribution: Small Intestine ([5]; At 1 h nude mice): 6.69 ± 0.82 | Biodistribution: Spleen ([5]; At 1 h nude mice): 2.38 ± 0.04 | Biodistribution: Stomach ([5]; At 1 h nude mice): 2.72 ± 0.30 | Biodistribution: Bladder ([5]; At 2 h NSG mice): 1.82 ± 0.26

Structure (SMILES): N#C[C@@H]1CCCN1C(=O)CNC(=O)c1ccnc2ccc(OCCCNC(=O)CCc3cn(CCOCCOCCOCCOCCOCCOCCC(=O)N[C@@H](CCCCNC(=O)CN4CCN(CC(=O)O)CCN(CC(=O)O)CC4)C(=O)NCCCCC(=O)N(CCCC[C@H](NC(=O)N[C@@H](CCC(=O)O)C(=O)O)C(=O)O)Cc4ccc(Br)cc4)nn3)cc12
tissue uptake at 1 h ([6]; bladder, read-out: Biodistribution: Bladder): 3.53 ± 0.52 %ID/g | tissue uptake at 1 h ([6]; lacrimal gland, read-out: Biodistribution: Lac gl): 9.2 ± 1.74 %ID/g | tissue uptake at 2 h ([6]; lacrimal gland, 2 h, n=4, read-out: Biodistribution: Lac gl): 7 ± 2.22 %ID/g | tissue uptake at 4 h ([6]; lacrimal gland, n=4, read-out: Biodistribution: Lac gl): 3.01 ± 1.94 %ID/g | tissue uptake at 1 h ([6]; salivary gland, read-out: Biodistribution: Sal gl): 12.6 ± 2.46 %ID/g | tissue uptake at 4 h ([6]; salivary gland, n=4, read-out: Biodistribution: Sal gl): 4.47 ± 0.89 %ID/g | tissue uptake at 4 h ([6]; small intestine, n=4, read-out: Biodistribution: Sm in): 3.54 ± 0.57 %ID/g | Biodistribution: Blood ([7]; 1 h, n=3): 9.73 ± 0.29 | Biodistribution: Bone ([7]; 1 h, n=3): 6.00 ± 0.27 | Biodistribution: Fat ([7]; 1 h, n=3): 0.80 ± 0.31 | Biodistribution: Heart ([7]; 1 h, n=3): 4.36 ± 0.23 | Biodistribution: Kidney ([7]; 1 h, n=3): 8.08 ± 1.48 | Biodistribution: Liver ([7]; 1 h, n=3): 5.30 ± 0.77 | Biodistribution: Lung ([7]; 1 h, n=3): 7.30 ± 1.16 | Biodistribution: Muscle ([7]; 1 h, n=3): 2.99 ± 0.18 | Biodistribution: Panc ([7]; 1 h, n=3): 9.98 ± 0.99 | Biodistribution: SKMEL24 ([7]; 1 h, n=3): 13.25 ± 1.32 | Biodistribution: Sm in ([7]; 1 h, n=3): 6.52 ± 0.85 | Biodistribution: Spleen ([7]; 1 h, n=3): 3.06 ± 0.46 | Biodistribution: Stomach ([7]; 1 h, n=3): 3.29 ± 1.04 | Biodistribution: Bladder ([7]; 2 h, n=4): 4.76 ± 2.68 | Biodistribution: Blood ([7]; 2 h, n=4): 6.36 ± 0.89 | Biodistribution: Bone ([7]; 2 h, n=4): 5.61 ± 1.73 | Biodistribution: Fat ([7]; 2 h, n=4): 0.91 ± 0.83 | Biodistribution: Heart ([7]; 2 h, n=4): 2.92 ± 0.27 | Biodistribution: Kidney ([7]; 2 h, n=4): 8.05 ± 1.27 | Biodistribution: Liver ([7]; 2 h, n=4): 5.82 ± 0.72 | Biodistribution: Lung ([7]; 2 h, n=4): 5.76 ± 0.57 | Biodistribution: Muscle ([7]; 2 h, n=4): 2.24 ± 0.42 | Biodistribution: Panc ([7]; 2 h, n=4): 6.66 ± 0.38 | Biodistribution: SKMEL24 ([7]; 2 h, n=4): 12.48 ± 1.03 | Biodistribution: Sm in ([7]; 2 h, n=4): 5.44 ± 1.52 | Biodistribution: Spleen ([7]; 2 h, n=4): 2.56 ± 0.40 | Biodistribution: Stomach ([7]; 2 h, n=4): 3.20 ± 0.85 | Biodistribution: Bladder ([7]; 4 h, n=4): 4.63 ± 1.72 | Biodistribution: Blood ([7]; 4 h, n=4): 3.29 ± 0.07 | Biodistribution: Bone ([7]; 4 h, n=4): 3.42 ± 0.92 | Biodistribution: Fat ([7]; 4 h, n=4): 0.49 ± 0.14 | Biodistribution: Heart ([7]; 4 h, n=4): 1.87 ± 0.26 | Biodistribution: Kidney ([7]; 4 h, n=4): 7.26 ± 3.43 | Biodistribution: Liver ([7]; 4 h, n=4): 6.03 ± 1.00 | Biodistribution: Lung ([7]; 4 h, n=4): 4.55 ± 0.51 | Biodistribution: Muscle ([7]; 4 h, n=4): 1.32 ± 0.22 | Biodistribution: Panc ([7]; 4 h, n=4): 4.48 ± 0.88 | Biodistribution: SKMEL24 ([7]; 4 h, n=4): 9.82 ± 3.39 | Biodistribution: Spleen ([7]; 4 h, n=4): 2.69 ± 0.44 | Biodistribution: Stomach ([7]; 4 h, n=4): 2.23 ± 0.58

Structure (SMILES): N#C[C@@H]1CCCN1C(=O)CNC(=O)c1ccnc2ccc(OCCCNC(=O)CCc3cn(CCCC[C@H](NC(=O)CN4CCN(CC(=O)O)CCN(CC(=O)O)CCN(CC(=O)O)CC4)C(=O)NCCCCCC(=O)N(CCCC[C@H](NC(=O)N[C@@H](CCC(=O)O)C(=O)O)C(=O)O)Cc4ccc(Br)cc4)nn3)cc12 [SB-FAP-06]
IC50 ([1]; Table 4): 1.84 nM | Ki ([1]; Table 4): 0.37 nM | IC50 ([2]; Table 4): 370 nM | IC50 ([3]; Table 4): 14.1 µM | IC50 ([4]; Table 4): 4.71 nM | Ki ([4]; Table 4): 0.94 nM

Structure (SMILES): CC1(C)C(/C=C/C2=C(Oc3ccc(S(=O)(=O)O)cc3)C(=C/C=C3/N(CCCCS(=O)(=O)O)c4ccc(S(=O)(=O)O)cc4C3(C)C)/CCC2)=[N+](CCCCCC(=O)N[C@@H](CCCCn2cc(CCC(=O)NCCCOc3ccc4nccc(C(=O)NCC(=O)N5CCC[C@H]5C#N)c4c3)nn2)C(=O)NCCNC(=O)CCC(C(=O)O)N2CCN(CC(=O)O)CCN(CC(=O)O)CCN(CC(=O)O)CC2)c2ccc(S(=O)(=O)[O-])cc21 (some centres unmarked) [SB-FAP-10]
IC50 ([1]; Table 4): 3.43 nM | Ki ([1]; Table 4): 0.69 nM | IC50 ([2]; Table 4): 2530 nM | IC50 ([3]; Table 4): 11.9 µM

From US20240382629A1, “HETEROBIVALENT AND HOMOBIVALENT AGENTS TARGETING FIBROBLAST ACTIVATION PROTEIN ALPHA AND/OR PROSTATE-SPECIFIC MEMBRANE ANTIGEN” (The Johns Hopkins University, priority 2021, published 2024)
